We go through 17 molecules from patent publication US20250051344A1, “BIFUNCTIONAL SELECTIVE DEGRADERS OF SMARCA2 AND THERAPEUTIC USES THEREOF” (Nurix Therapeutics, Inc., priority 2023, published 2025).

Assay [1] concerns the target T1, SMARCA4 (Homo sapiens, UniProt P51532).
T1 construct: endogenous in cells
Nature of the assay: Cellular degradation assay, SMARCA4 (Table 1). The class given is cell-based.

Assay [2] addresses T2, SMARCA2 (Homo sapiens, UniProt P51531).
T2 construct: endogenous in cells
Nature of the assay: SMARCA2 Cellular Degradation Assay (Western blot analysis on Jess platform). In kind it is cell-based. The note with it: for DC50 / Dmax: cellular degradation; for Fold Selectivity SMARCA4/2: ratio DC50 SMARCA4 / DC50 SMARCA2. The method, boiled down: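 SMARCA2 remaining is given as percent of vehicle control, using actin-normalized, background-corrected electropherogram areas. Measurement was by Jess capillary immunoassay (anti-SMARCA2 with anti-β-actin) on 5 μg protein from RIPA/SDS lysates of tumor-derived cells.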
In general terms: A western blot detects proteins with antibodies after separation by electrophoresis.

T2 sequence (P51531 whole entry, species assumed): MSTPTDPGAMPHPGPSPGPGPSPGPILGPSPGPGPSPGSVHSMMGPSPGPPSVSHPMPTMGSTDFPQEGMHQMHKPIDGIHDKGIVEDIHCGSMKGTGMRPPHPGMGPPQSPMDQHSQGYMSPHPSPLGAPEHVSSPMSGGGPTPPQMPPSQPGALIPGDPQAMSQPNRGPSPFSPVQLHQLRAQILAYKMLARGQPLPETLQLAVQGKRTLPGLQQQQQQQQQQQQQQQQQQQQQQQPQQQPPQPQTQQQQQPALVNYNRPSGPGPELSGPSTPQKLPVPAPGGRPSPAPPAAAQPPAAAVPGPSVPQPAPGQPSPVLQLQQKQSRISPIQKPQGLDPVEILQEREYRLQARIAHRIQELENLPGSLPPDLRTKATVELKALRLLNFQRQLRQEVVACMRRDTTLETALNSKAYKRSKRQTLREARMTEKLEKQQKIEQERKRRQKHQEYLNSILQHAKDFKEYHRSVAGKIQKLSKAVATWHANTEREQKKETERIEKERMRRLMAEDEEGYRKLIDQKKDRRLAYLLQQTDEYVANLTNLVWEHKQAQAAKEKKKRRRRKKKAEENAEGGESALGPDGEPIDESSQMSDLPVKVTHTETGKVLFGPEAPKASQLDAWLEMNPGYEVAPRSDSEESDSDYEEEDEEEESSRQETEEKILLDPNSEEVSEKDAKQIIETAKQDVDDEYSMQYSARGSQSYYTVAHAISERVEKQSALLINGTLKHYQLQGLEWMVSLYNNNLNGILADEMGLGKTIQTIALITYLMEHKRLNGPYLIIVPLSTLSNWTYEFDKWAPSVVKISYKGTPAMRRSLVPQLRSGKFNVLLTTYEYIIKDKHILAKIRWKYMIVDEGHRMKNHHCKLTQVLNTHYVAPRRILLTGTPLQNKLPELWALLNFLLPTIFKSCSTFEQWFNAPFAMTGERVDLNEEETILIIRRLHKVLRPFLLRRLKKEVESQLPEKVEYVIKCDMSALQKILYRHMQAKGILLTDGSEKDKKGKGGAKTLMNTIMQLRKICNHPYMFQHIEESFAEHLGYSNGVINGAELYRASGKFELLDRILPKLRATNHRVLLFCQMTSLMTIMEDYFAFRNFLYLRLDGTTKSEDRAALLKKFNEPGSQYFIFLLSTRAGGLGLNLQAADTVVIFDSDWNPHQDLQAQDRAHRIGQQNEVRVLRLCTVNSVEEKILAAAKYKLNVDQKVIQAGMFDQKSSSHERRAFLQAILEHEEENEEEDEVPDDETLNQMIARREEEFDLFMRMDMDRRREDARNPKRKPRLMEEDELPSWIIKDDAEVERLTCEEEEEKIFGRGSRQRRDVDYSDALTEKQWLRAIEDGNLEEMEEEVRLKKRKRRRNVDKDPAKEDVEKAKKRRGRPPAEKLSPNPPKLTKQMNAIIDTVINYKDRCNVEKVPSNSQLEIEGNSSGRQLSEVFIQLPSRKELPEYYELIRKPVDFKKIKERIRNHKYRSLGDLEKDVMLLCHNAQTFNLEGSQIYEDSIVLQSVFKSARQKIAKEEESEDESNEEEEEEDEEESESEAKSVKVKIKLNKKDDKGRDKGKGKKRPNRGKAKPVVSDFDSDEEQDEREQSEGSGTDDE
T1 sequence (P51532 whole entry, species assumed): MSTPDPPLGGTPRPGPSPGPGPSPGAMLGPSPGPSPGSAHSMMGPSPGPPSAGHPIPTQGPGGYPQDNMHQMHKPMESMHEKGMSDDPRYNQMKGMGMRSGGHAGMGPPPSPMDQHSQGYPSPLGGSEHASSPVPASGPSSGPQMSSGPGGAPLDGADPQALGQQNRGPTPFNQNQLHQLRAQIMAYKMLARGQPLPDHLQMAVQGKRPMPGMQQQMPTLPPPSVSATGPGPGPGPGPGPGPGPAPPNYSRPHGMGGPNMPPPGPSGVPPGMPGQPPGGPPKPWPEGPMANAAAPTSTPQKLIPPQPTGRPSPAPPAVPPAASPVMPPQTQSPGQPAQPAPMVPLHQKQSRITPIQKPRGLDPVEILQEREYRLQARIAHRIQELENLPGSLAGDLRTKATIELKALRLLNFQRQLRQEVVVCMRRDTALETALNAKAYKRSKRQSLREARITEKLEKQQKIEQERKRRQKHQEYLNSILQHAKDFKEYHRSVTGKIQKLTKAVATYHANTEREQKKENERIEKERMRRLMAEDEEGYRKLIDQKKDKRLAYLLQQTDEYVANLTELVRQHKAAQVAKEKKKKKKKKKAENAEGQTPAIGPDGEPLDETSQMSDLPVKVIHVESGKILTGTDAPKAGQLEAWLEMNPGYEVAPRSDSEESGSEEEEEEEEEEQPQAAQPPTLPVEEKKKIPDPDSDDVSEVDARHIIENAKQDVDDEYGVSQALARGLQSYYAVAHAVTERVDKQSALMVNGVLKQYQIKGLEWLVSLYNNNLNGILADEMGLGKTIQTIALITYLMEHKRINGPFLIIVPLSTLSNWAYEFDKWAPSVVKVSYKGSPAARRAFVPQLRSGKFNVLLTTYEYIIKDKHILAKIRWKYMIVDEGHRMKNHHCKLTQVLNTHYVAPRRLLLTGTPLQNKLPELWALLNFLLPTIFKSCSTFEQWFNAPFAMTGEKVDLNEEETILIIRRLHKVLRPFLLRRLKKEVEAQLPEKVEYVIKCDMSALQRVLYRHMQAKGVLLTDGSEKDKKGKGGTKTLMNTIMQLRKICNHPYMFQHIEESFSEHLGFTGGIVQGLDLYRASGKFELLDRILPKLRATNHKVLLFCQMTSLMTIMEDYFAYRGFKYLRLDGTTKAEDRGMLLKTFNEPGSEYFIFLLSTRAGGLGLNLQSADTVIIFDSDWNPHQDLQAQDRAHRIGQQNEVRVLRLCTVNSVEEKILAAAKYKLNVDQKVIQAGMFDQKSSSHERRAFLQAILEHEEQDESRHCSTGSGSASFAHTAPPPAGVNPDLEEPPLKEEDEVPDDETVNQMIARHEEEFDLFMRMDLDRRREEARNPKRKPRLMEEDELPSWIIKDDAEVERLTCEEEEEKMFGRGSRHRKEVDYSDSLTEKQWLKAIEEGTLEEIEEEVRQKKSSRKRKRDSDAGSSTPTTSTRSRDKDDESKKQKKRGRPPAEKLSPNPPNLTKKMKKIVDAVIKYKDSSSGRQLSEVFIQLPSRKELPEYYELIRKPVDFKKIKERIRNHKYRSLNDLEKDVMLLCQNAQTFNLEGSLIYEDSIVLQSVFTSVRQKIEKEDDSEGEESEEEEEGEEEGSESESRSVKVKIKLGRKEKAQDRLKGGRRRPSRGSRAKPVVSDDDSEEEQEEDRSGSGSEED

A word on the Dmax: it is the greatest extent of degradation seen. Low values mean shallow degradation, high ones deep degradation. A word on the DC50: it is the concentration at which degradation of the target reaches its halfway point. A lower DC50 goes with degradation at low concentration. `O=C1CC[C@H](c2ccc(N3CCC(CN4CC(F)C5(C4)CN(C(=O)C4(c6ccccc6)CCN(c6cnnc(-c7ccccc7O)c6)CC4)C5)CC3)cc2)C(=O)N1` (stereo partly drawn) [Example 25, (3R)-3-(4-{4-[(8-fluoro-2-{1-[6-(2-hydroxyphenyl)pyridazin-4-yl]-4-phenylpiperidine-4-carbonyl}-2,6-diazaspiro[3.4]octan-6-yl)methyl]piperidin-1-yl}phenyl)piperidine-2,6-dione] registered a Dmax in assay [1] of 29.4%. Besides, in assay [2], the half-maximal degradation concentration (DC50) stood at 80.7 nM, the Dmax came to 61.5% and the “Fold Selectivity SMARCA4/2” value was 123.86.
Molecule `O=C1CC[C@@H](c2ccc(OCC3CCN(CC4CCN(C(=O)C5(c6ccccc6)CCN(c6cnnc(-c7ccccc7O)c6)CC5)CC4)CC3)cc2)C(=O)N1` [Example 35, (3S)-3-[4-({1-[(1-{1-[6-(2-hydroxyphenyl)pyridazin-4-yl]-4-phenylpiperidine-4-carbonyl}piperidin-4-yl)methyl]piperidin-4-yl}methoxy)phenyl]piperidine-2,6-dione] had a Dmax in assay [1] of 22.6%. In addition, in assay [2], it took 80.5 nM to reach half-maximal degradation (DC50), the maximal degradation (Dmax) was 57% and the “Fold Selectivity SMARCA4/2” value is reported as 124.30.
Turning to `O=C1CC[C@H](c2ccc(OCC3CCN(CC4CCN(C(=O)C5(c6ccccc6)CCN(c6cnnc(-c7ccccc7O)c6)CC5)CC4)CC3)cc2)C(=O)N1` [Example 36, (3R)-3-[4-({1-[(1-{1-[6-(2-hydroxyphenyl)pyridazin-4-yl]-4-phenylpiperidine-4-carbonyl}piperidin-4-yl)methyl]piperidin-4-yl}methoxy)phenyl]piperidine-2,6-dione], the maximal degradation (Dmax) in assay [1] worked out at 27.4%. Besides, in assay [2], the half-maximal degradation concentration (DC50) turned out to be 32.3 nM, the Dmax was found to be 63.9% and the “Fold Selectivity SMARCA4/2” value is 309.98.
As for `O=C1CC[C@H](c2ccc(N3CCC(CN4CCCC4C4CCCN(C(=O)C5(c6ccccc6)CCN(c6cnnc(-c7ccccc7O)c6)CC5)C4)CC3)cc2)C(=O)N1` (stereo partly drawn) [Example 37, (3R)-3-[4-(4-{[2-(1-{1-[6-(2-hydroxyphenyl)pyridazin-4-yl]-4-phenylpiperidine-4-carbonyl}piperidin-3-yl)pyrrolidin-1-yl]methyl}piperidin-1-yl)phenyl]piperidine-2,6-dione], the Dmax came to 33.1% in assay [1] and 47.5% in assay [2]. In assay [2], the “Fold Selectivity SMARCA4/2” value came out at 1.
In turn, `O=C1CC[C@H](c2ccc(N3CCC(CN4CC5CCN(C(=O)C6(c7ccccc7)CCN(c7cnnc(-c8ccccc8O)c7)CC6)CC54)CC3)cc2)C(=O)N1` (stereo partly drawn) [Example 38, (3R)-3-(4-{4-[(3-{1-[6-(2-hydroxyphenyl)pyridazin-4-yl]-4-phenylpiperidine-4-carbonyl}-3,8-diazabicyclo[4.2.0]octan-8-yl)methyl]piperidin-1-yl}phenyl)piperidine-2,6-dione] gave a Dmax in assay [1] of 3.22%. In assay [2], the maximal degradation (Dmax) was found to be 44.8% and the “Fold Selectivity SMARCA4/2” value is given as 1.
With `O=C1CC[C@H](c2ccc(N3CCC(CN4CCC(NC(=O)C5(c6ccccc6)CCN(c6cnnc(-c7ccccc7O)c6)CC5)CC45CCC5)CC3)cc2)C(=O)N1` (stereo partly drawn) [Example 39, N-{5-[(1-{4-[(3R)-2,6-dioxopiperidin-3-yl]phenyl}piperidin-4-yl)methyl]-5-azaspiro[3.5]nonan-8-yl}-1-[6-(2-hydroxyphenyl)pyridazin-4-yl]-4-phenylpiperidine-4-carboxamide], in assay [1], the DC50 was 79.3 nM and the maximal degradation (Dmax) was determined as 53.7%. Further, in assay [2], half-maximal degradation (DC50) was put at 3.09 nM, the Dmax is 84.8% and the “Fold Selectivity SMARCA4/2” value worked out at 25.67.
`O=C1CC[C@H](c2ccc(N3CCC(CN4CCCC4C4CCN(C(=O)C5(c6ccccc6)CCN(c6cnnc(-c7ccccc7O)c6)CC5)CC4)CC3)cc2)C(=O)N1` (stereo partly drawn) [Example 40, (3R)-3-[4-(4-{[2-(1-{1-[6-(2-hydroxyphenyl)pyridazin-4-yl]-4-phenylpiperidine-4-carbonyl}piperidin-4-yl)pyrrolidin-1-yl]methyl}piperidin-1-yl)phenyl]piperidine-2,6-dione] had a maximal degradation (Dmax) in assay [1] of 13.8%. In assay [2], the DC50 is 317 nM, the Dmax worked out at 50.3% and the “Fold Selectivity SMARCA4/2” value is 31.55.
`O=C1CC[C@H](c2ccc(N3CCC(CN4CCCC5C4CCCN5C(=O)C4(c5ccccc5)CCN(c5cnnc(-c6ccccc6O)c5)CC4)CC3)cc2)C(=O)N1` (stereo partly drawn) [Example 41, (3R)-3-(4-{4-[(5-{1-[6-(2-hydroxyphenyl)pyridazin-4-yl]-4-phenylpiperidine-4-carbonyl}-decahydro-1,5-naphthyridin-1-yl)methyl]piperidin-1-yl}phenyl)piperidine-2,6-dione]: the greatest degradation seen (Dmax) in assay [1] amounted to 41%. Besides, in assay [2], the Dmax was found to be 36.8% and the “Fold Selectivity SMARCA4/2” value is listed as 1.
As for `O=C1CC[C@H](c2ccc(N3CCC(CN4CCCC4C4CCCCN4C(=O)C4(c5ccccc5)CCN(c5cnnc(-c6ccccc6O)c5)CC4)CC3)cc2)C(=O)N1` (stereo partly drawn) [Example 42, (3R)-3-[4-(4-{[2-(1-{1-[6-(2-hydroxyphenyl)pyridazin-4-yl]-4-phenylpiperidine-4-carbonyl}piperidin-2-yl)pyrrolidin-1-yl]methyl}piperidin-1-yl)phenyl]piperidine-2,6-dione], the Dmax in assay [1] was found to be 9.32%. Moreover, in assay [2], the Dmax was 28.7% and the “Fold Selectivity SMARCA4/2” value came out at 1.
As for `O=C1CC[C@H](c2ccc(N3CCC(CN4CC5CCCC(C4)N(C(=O)C4(c6ccccc6)CCN(c6cnnc(-c7ccccc7O)c6)CC4)C5)CC3)cc2)C(=O)N1` (stereo partly drawn) [Example 45, (3R)-3-(4-{4-[(9-{1-[6-(2-hydroxyphenyl)pyridazin-4-yl]-4-phenylpiperidine-4-carbonyl}-3,9-diazabicyclo[3.3.2]decan-3-yl)methyl]piperidin-1-yl}phenyl)piperidine-2,6-dione], in assay [1], the maximal degradation (Dmax) came to 9.72%. Further, in assay [2], the Dmax was 29.5% and the “Fold Selectivity SMARCA4/2” value was 1.
As to `O=C1CC[C@H](c2ccc(N3CCC(CN4CCCN(C(=O)C5(c6ccccc6)CCN(c6cnnc(-c7ccccc7O)c6)CC5)CC4)CC3)cc2)C(=O)N1` [Example 46, (3R)-3-(4-{4-[(4-{1-[6-(2-hydroxyphenyl)pyridazin-4-yl]-4-phenylpiperidine-4-carbonyl}-1,4-diazepan-1-yl)methyl]piperidin-1-yl}phenyl)piperidine-2,6-dione], in assay [1], the Dmax amounted to 45.1%. For the same molecule, in assay [2], the DC50 stood at 33.7 nM, the Dmax worked out at 63.3% and the “Fold Selectivity SMARCA4/2” value amounted to 297.00.
In assay [1], `O=C1CC[C@H](c2ccc(N3CCC(CN4CC5CC(NC(=O)C6(c7ccccc7)CCN(c7cnnc(-c8ccccc8O)c7)CC6)C4C5)CC3)cc2)C(=O)N1` (stereo partly drawn) [Example 47, N-{2-[(1-{4-[(3R)-2,6-dioxopiperidin-3-yl]phenyl}piperidin-4-yl)methyl]-2-azabicyclo[2.2.1]heptan-6-yl}-1-[6-(2-hydroxyphenyl)pyridazin-4-yl]-4-phenylpiperidine-4-carboxamide] returned a Dmax of 2.09%. In assay [2], the maximal degradation (Dmax) was 7.19% and the “Fold Selectivity SMARCA4/2” value amounted to 1.
In the same order, the values of `O=C1CC[C@H](c2ccc(N3CCC(CN4CCC(C5CCN(C(=O)C6(c7ccccc7)CCN(c7cnnc(-c8ccccc8O)c7)CC6)CC5)C4)CC3)cc2)C(=O)N1` (stereo partly drawn) [Example 48, (3R)-3-[4-(4-{[3-(1-{1-[6-(2-hydroxyphenyl)pyridazin-4-yl]-4-phenylpiperidine-4-carbonyl}piperidin-4-yl)pyrrolidin-1-yl]methyl}piperidin-1-yl)phenyl]piperidine-2,6-dione] are 16.3%, 35.6% and 1.
Take `O=C1CC[C@H](c2ccc(N3CCC(CNC4CC5CCCC(C4)C5NC(=O)C4(c5ccccc5)CCN(c5cnnc(-c6ccccc6O)c5)CC4)CC3)cc2)C(=O)N1` (stereo partly drawn) [Example 49, N-(3-{[(1-{4-[(3R)-2,6-dioxopiperidin-3-yl]phenyl}piperidin-4-yl)methyl]amino}bicyclo[3.3.1]nonan-9-yl)-1-[6-(2-hydroxyphenyl)pyridazin-4-yl]-4-phenylpiperidine-4-carboxamide]: in assay [1], the 50% degradation concentration (DC50) amounted to 172 nM and the Dmax came to 59.8%. In assay [2], the DC50 was 26.4 nM, the Dmax was determined as 76.9% and the “Fold Selectivity SMARCA4/2” value is on record as 6.52.
In assay [1], `CC1CC2CN(CC3CCN(c4ccc([C@H]5CCC(=O)NC5=O)cc4)CC3)CC2N1C(=O)C1(c2ccccc2)CCN(c2cnnc(-c3ccccc3O)c2)CC1` (stereo partly drawn) [Example 50, (3R)-3-(4-{4-[(1-{1-[6-(2-hydroxyphenyl)pyridazin-4-yl]-4-phenylpiperidine-4-carbonyl}-2-methyl-hexahydropyrrolo[2,3-c]pyrrol-5-yl)methyl]piperidin-1-yl}phenyl)piperidine-2,6-dione] showed a Dmax of 20.2%. Moreover, in assay [2], the half-maximal degradation concentration (DC50) was 136 nM, the Dmax worked out at 53.4% and the “Fold Selectivity SMARCA4/2” value is 73.54.
Take `O=C1CC[C@H](c2ccc(N3CCC(CN4CCC5CN(C(=O)C6(c7ccccc7)CCN(c7cnnc(-c8ccccc8O)c7)CC6)C5C4)CC3)cc2)C(=O)N1` (stereo partly drawn) [Example 51, (3R)-3-(4-{4-[(8-{1-[6-(2-hydroxyphenyl)pyridazin-4-yl]-4-phenylpiperidine-4-carbonyl}-3,8-diazabicyclo[4.2.0]octan-3-yl)methyl]piperidin-1-yl}phenyl)piperidine-2,6-dione]: the figures for the Dmax in assay [1] and in assay [2] were 0.85% and 26.7%, respectively. In addition, the “Fold Selectivity SMARCA4/2” value in assay [2] came out at 1.
As for `O=C1CC[C@H](c2ccc(N3CCC(CN4CC(F)(F)C5(C4)CN(C(=O)C4(c6ccccc6)CCN(c6cnnc(-c7ccccc7O)c6)CC4)C5)CC3)cc2)C(=O)N1` [Example 52, (3R)-3-(4-{4-[(8,8-difluoro-2-{1-[6-(2-hydroxyphenyl)pyridazin-4-yl]-4-phenylpiperidine-4-carbonyl}-2,6-diazaspiro[3.4]octan-6-yl)methyl]piperidin-1-yl}phenyl)piperidine-2,6-dione], the values for the greatest degradation seen (Dmax) in assay [1] and in assay [2] were 13.7% and 44%, respectively. In addition, the “Fold Selectivity SMARCA4/2” value in assay [2] came to 1.
